Test: Human HepG2 cell viability assay in 384 well format
Assay type: toxicity, cell-based
Parameters: dose 125 nL, time 70.5 hour; cytotoxicity at 70.5 h: concentration not given beside the values
Details: HepG2 cells, read-out: Inhibition

Compound | cytotoxicity at 70.5 h
CC1(c2ccc(Br)cc2)CC(=O)N(CCC#N)C1=O (stereo not drawn) | 32.5%
O=C(Nc1ccccc1N1CCOC1=O)N1CCc2sccc2C1 | -8.21%
OCCN1CCN(CC(O)c2ccc(C(F)(F)F)cc2)CC1 (stereo not drawn) | 33.3%
COc1cc(CSc2nnc(N)n2C2CC2)ccc1SC | -5.1%
CC1(c2ccc(Br)cc2)CC(=O)N(CC(N)=O)C1=O (stereo not drawn) | 32.3%
CCC(NC(=O)CNC(=O)OC)c1cc(F)ccc1F (stereo not drawn) | -2.42%
COCCNC(=O)Cn1cc(NC(=O)c2cccc(Cl)c2Cl)cn1 | -1.6%
COCC(=O)Nc1ccnn1-c1ccc(Cl)cc1 | 3.64%
Cc1cc(C)cc(CNc2ccc(C(=O)NC(C)CO)cc2)c1 (stereo not drawn) | -1.12%
CSCc1cc(C(=O)NC2(C#N)CC2)ccc1F | -0.691%
CCc1nc(C(=O)N2CC(C(C)C)Nc3ccccc32)c[nH]1 (stereo not drawn) | -7.98%
CCc1nc(C(=O)N2CC(C)CN(C)c3ccccc32)c[nH]1 (stereo not drawn) | -2.27%
Cc1nc(CNC(=O)Nc2cc(F)ccc2OC(F)F)no1 | -3.38%
CC1CN(C)c2ccccc2N(C(=O)c2c[nH]c(C(C)C)n2)C1 (stereo not drawn) | 31.3%
Cc1ncccc1C(=O)Nc1cccc(OCC(F)F)n1 | -8.26%
CC(=O)N1CCC[C@H]1C(=O)NCCCN(C(C)C)S(C)(=O)=O | -6.32%
CC(C)N(CCCNC(=O)C1CC(=O)N(C)C1)S(C)(=O)=O (stereo not drawn) | 33.7%
CN(Cc1nnn(CC2CC2)n1)C(=O)c1ccccc1 | 32.1%
FC(F)(F)COc1ccc(CSCc2ccon2)cn1 | -8.78%
CCN(C(=O)Nc1nccs1)C(C)c1cccc(O)c1 (stereo not drawn) | -9.8%
Cn1cc(CNCCNc2ncc(Cl)cc2Cl)cn1 | -4.79%
COc1c(C)cnc(CN2CCCC2c2noc(C3CC3)n2)c1C (stereo not drawn) | 1.14%
COC(=O)c1ccc(Cn2cnc(C#N)n2)cc1 | -12%
NCc1cccc(NC(=O)CCN2CCOCC2)c1 | -9.57%

Compound | cytotoxicity at 70.5 h
CSCCC(NC(=O)c1ccco1)C(=O)N(C)Cc1ccsc1 (stereo not drawn) | -4.71%
COc1ccc(CCN(C)C(=O)c2cc(C(C)=O)c[nH]2)cc1OC | -11.9%
O=C(CCN1CCOCC1)Nc1cccc(CNCc2ccsc2)c1 | 14.1%
Cc1n[nH]c(C)c1NC(=O)NCc1cc[nH]n1 | -12.5%
COc1ccc(CCCN(C)C(=O)c2cc(Cl)c[nH]2)cc1OC | -10.5%
CS(=O)(=O)NCC1CCCN(Cc2ccccc2F)C1 (stereo not drawn) | -7.12%
O=C(NCc1ccco1)N1CCOC(c2ccccc2Cl)C1 (stereo not drawn) | -15.6%
O=C(NCCc1ccccn1)N1CCOC(c2ccccc2Cl)C1 (stereo not drawn) | -5.38%
CSc1ccc(C)c(C(=O)Nc2c(C(N)=O)n[nH]c2C)c1 | -5.86%
COc1cc(F)cc2sc(NC(=O)COCC3CCCO3)nc12 (stereo not drawn) | 13.2%
N#Cc1cccnc1NCCNC(=O)N1CCCSCC1 | -13%
CCc1ccc(S(=O)(=O)Nc2cn(C)cc(Br)c2=O)cc1 | 7.59%
CN(C)C(=O)N1CCN(Cc2nnc(C(C)(C)C)o2)CC1 | -4.6%
CCc1nc(CN(C)CC2CCN(CC(C)O)CC2)no1 (stereo not drawn) | -4.55%
Cc1nnc(C(C)NCC2(c3ccc(Cl)cc3)CCCC2)o1 (stereo not drawn) | -7.22%
COc1ccc(C2(CNC(C)c3nnc(C)o3)CCCCC2)cc1 (stereo not drawn) | -8.26%
Cc1ccc(CN(C)C(=O)CN2CCCC2Cn2cccn2)o1 (stereo not drawn) | -9.22%
Cc1cnn(CC2CCCN2CC(=O)N(C)CCC#N)c1 (stereo not drawn) | -7.49%
CN(CC1CCCCO1)C(=O)c1ccnc(OC2CCC2)c1 (stereo not drawn) | -5.26%
CCc1nnc2n1CCN(Cc1csc(-c3cnn(C)c3)n1)C2 | 6.48%
Cc1cc(NC(=O)CCc2ccsc2)n(C)n1 | -9.51%
O=S1(=O)CCCN1Cc1coc(-c2cccs2)n1 | -10.6%
CC(C)(C)NC(=O)CNC(=O)CCc1ccccc1Br | -8.13%
CCCNC(=O)C(C)NC(=O)CCc1ccccc1Br (stereo not drawn) | -6.3%

Source: ChEMBL document CHEMBL3507680, “University of Dundee, Gates Library screen for HepG2 cell viability”
